In patent US9725436B2, “Cytochrome P450 inhibitors and their method of use” (CORTENDO AB (PUBL), priority 2013, dated 2017):

Tests used:
recombinant CYP-17 = recombinant CYP-17 (Homo sapiens (Human), UniProt P05093); assay: Cyp17 assay protocol (3H-acetic acid release from [21-3H] 17α-hydroxyl-Pregnenolone); type: cell-based; settings: AD293 cells over-expressing recombinant CYP-17
Procedure: Cyp17 assay protocol: AD293 cells that stably over-express recombinant CYP-17 were seeded in 96 well plates coated with poly D-lysine (15,000 cell per well) and incubated at 37° C. for 24 hours in Dulbecco's Modified Eagle Medium (DMEM) with Fetal Bovine Serum (FBS) that is stripped of hormones by charcoal treatment. The media is then removed, the cells are washed once with Phosphate buffer saline solution, and 50 μL Dulbecco's Modified Eagle Medium (DMEM) with Fetal Bovine Serum (FBS) that is stripped of hormones by charcoal treatment is added. Compounds of the disclosure are then added to the wells in eight concentration spanning 10 μM to 4.5 nM, and the plates are incubated for an additional 60 minutes at 37° C. [21-^3H] 17α-hydroxyl-Pregnenolone is then added (50 nCi per well, 31.25 nM) and the plates are incubated for an additional 4 hours at 37° C. The media is then collected, 200 μL of chloroform is added, and the mixture is shaken for 1 hour. The aqueous layer is then separated and analyzed for the presence of ^3H-acetic acid using a Perkin Elmer Topcount NXT to determine IC50s of the compounds of the disclosure.

recombinant CYP-11 = recombinant CYP-11 (Homo sapiens (Human), UniProt P15538); assay: Cyp11 assay protocol (cortisol formation from 11-deoxycortisol, LC/MS); type: cell-based; settings: AD293 cells over-expressing recombinant CYP-11
recombinant CYP-11, sequence (P15538 25-503): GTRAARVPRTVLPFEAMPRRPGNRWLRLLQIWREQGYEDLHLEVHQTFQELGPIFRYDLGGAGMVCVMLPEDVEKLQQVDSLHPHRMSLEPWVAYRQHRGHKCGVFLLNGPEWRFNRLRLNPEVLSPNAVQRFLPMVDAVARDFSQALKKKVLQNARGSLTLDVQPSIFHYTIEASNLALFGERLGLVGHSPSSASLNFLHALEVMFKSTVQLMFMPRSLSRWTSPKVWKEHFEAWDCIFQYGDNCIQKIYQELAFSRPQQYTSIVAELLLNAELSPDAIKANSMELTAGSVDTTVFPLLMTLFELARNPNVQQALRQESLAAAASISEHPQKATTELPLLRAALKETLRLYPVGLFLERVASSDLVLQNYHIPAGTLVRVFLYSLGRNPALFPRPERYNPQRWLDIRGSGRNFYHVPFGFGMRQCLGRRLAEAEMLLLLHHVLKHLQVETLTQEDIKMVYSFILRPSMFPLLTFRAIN
Procedure: (§1) Cyp11 assay protocol: AD293 cells that stably over-express recombinant CYP-11 were seeded in 96 well plates coated with poly D-lysine (15,000 cell per well) and incubated at 37° C. for 24 hours in Dulbecco's Modified Eagle Medium (DMEM) with Fetal Bovine Serum (FBS) that is stripped of hormones by charcoal treatment. The media is then removed, the cells are washed once with Phosphate buffer saline solution, and 50 μL Dulbecco's Modified Eagle Medium (DMEM) with Fetal Bovine Serum (FBS) that is stripped of hormones by charcoal treatment is added. Compounds of the disclosure are then added to the wells in eight concentration spanning 10 μM to 4.5 nM, and the plates are incubated for an additional 60 minutes at 37° C. 11-deoxycortisol is then added (2.0 μM) and the plates are incubated for an additional 12 hours at 37° C. After incubation, 50 uL of the supernatant (medium) is transferred into a fresh plate and 150 uL of an acetonitrile solution containing 200 ng/ml of Telmisartan is added.

recombinant CYP-21 = recombinant CYP-21 (Homo sapiens (Human), UniProt P08686); assay: Cyp21 assay protocol (11-deoxycortisol formation from 17α-OH Progesterone, LC/MS); type: cell-based; settings: AD293 cells over-expressing recombinant CYP-21
recombinant CYP-21, sequence (P08686 whole entry, species assumed): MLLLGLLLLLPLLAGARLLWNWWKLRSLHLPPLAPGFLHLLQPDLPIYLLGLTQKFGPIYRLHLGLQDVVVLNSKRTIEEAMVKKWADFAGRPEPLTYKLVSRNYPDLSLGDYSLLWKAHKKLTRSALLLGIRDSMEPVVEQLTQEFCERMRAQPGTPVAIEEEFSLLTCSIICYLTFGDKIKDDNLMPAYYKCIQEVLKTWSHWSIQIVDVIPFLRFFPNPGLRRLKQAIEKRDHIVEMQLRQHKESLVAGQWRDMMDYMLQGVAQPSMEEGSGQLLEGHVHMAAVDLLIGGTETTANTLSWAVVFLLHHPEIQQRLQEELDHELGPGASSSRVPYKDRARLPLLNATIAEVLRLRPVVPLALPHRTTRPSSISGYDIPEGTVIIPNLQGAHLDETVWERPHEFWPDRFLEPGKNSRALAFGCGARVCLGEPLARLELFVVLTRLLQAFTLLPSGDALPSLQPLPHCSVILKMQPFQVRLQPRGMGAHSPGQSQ
Procedure: as §1, with “Cyp21” for “Cyp11”, “CYP-21” for “CYP-11”, “(10,000” for “(15,000”, “17α-OH Progesterone” for “11-deoxycortisol”, “(1.0” for “(2.0”, “45 minutes” for “12 hours”

[1] = Pharmacokinetic study in the guinea pig, 10 mg/kg oral dosing; type: in vivo; design: DNAUC(0-inf): unit not given beside the values; settings: for DNAUC(0-inf): dose-normalised AUC; for AUC: read-out: AUC0_last; for MRT: read-out: MRT0_last
Procedure: Pharmacokinetic studies in the guinea pig were run using 1 mg/kg IV dosing (20% DMA, 40% TEG, 40% water) and 10 mg/kg oral dosing (2% Tween-80, 98% HPMC (1% water)).

recombinant CYP-17, sequence (P05093 whole entry, species assumed): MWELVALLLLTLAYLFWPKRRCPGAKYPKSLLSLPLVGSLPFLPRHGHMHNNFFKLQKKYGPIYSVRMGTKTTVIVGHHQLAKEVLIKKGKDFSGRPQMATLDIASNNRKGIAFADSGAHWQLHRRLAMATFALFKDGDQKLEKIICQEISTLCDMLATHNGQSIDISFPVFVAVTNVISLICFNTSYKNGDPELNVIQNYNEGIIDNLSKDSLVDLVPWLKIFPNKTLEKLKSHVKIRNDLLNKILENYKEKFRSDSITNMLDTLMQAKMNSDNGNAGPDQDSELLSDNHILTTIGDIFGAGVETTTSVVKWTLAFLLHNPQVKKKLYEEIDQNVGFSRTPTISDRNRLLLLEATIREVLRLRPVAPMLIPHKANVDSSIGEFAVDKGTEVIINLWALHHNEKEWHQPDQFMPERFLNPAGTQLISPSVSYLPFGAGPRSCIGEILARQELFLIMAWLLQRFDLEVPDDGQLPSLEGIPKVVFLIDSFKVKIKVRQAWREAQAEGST

Compound `CCS(=O)(=O)N1CCN(c2ccc(CCc3cc(F)cc(-c4ccncc4)c3)cc2)CC1` [Example 44] has an IC50 (recombinant CYP-17) of 2 nM, an IC50 (recombinant CYP-11) of 330 nM and an IC50 (recombinant CYP-21) of 1600 nM.

`CCOC(=O)CNC(=O)NC1CCN(c2ccc(/C=C/c3cc(Cl)cc(Cn4ccnc4)c3)cc2)CC1` [Example 47] gave an IC50 (recombinant CYP-17) of 3.5 nM, an IC50 (recombinant CYP-11) of 250 nM and an IC50 (recombinant CYP-21) of 73 nM.

For `O=S(=O)(C1CC1)N1CCN(c2ccc(CCc3cc(F)cc(-c4ccncc4)c3)cc2)CC1` [Example 41], the IC50 (recombinant CYP-17) was 3 nM and the IC50 (recombinant CYP-21) was 1200 nM.

`CC(=O)N1CCN(c2ccc(/C=C/c3cc(Cl)cc(C(=C(C)C)c4cccnc4)c3)cc2)CC1` [Example 30] showed an IC50 (recombinant CYP-17) of 210 nM, an IC50 (recombinant CYP-11) of 1800 nM and an IC50 (recombinant CYP-21) of 2400 nM.

Compound `Fc1cc(/C=C/c2ccc(-c3ccncc3)cc2)cc(-c2ccncc2)c1` [Example 25] has an IC50 (recombinant CYP-17) of 11 nM, an IC50 (recombinant CYP-11) of 3700 nM and an IC50 (recombinant CYP-21) of 850 nM.

`CC(=O)N1CCN(c2ccc(/C=C/c3cc(Cl)cc(COc4cccnc4)c3)cc2)CC1` [Example 26] showed an IC50 (recombinant CYP-17) of 135 nM and an IC50 (recombinant CYP-11) of 140 nM.

Compound `CC(C)=C(c1cccnc1)c1cc(Cl)cc(/C=C/c2ccc(-c3ccncc3)cc2)c1` [Example 46] has an IC50 (recombinant CYP-17) of 300 nM.

With `O=S(=O)(C1CC1)N1CCN(c2ccc(/C=C/c3cc(F)cc(-c4ccncc4)c3)cc2)CC1` [drawing 724] the “DNAUC(0-inf)” value [1] was 160, the Cmax ([1]; in vivo) was 172 ng/mL and the AUC ([1]; in vivo) was 1600 ng·h/mL. For the same compound, the MRT ([1]; in vivo) was 7 h.

`Fc1cc(/C=C/c2ccc(Br)cc2)cc(-c2ccncc2)c1` [Example 24] gave an IC50 (recombinant CYP-17) of 42 nM and an IC50 (recombinant CYP-21) of 2600 nM.

For `CCS(=O)(=O)N1CCN(c2ccc(/C=C/c3cc(F)cc(-c4ccncc4)c3)cc2)CC1` [drawing 725], the AUCExtra [1] was 18.25%, the “DNAUC(0-inf)” value [1] was 330.1 and the AUC(0-inf) ([1]; in vivo) was 4190 ng·h/mL. For the same compound, the Cmax ([1]; in vivo) was 540 ng/mL, the half-life ([1]; in vivo) was 4.8 h and the AUC ([1]; in vivo) was 3300 ng·h/mL. For the same compound, the MRT ([1]; in vivo) was 5.54 h.

With `Clc1cc(/C=C/c2ccc(N3CCN(CC4CC4)CC3)cc2)cc(Cn2ccnc2)c1` [Example 19] the IC50 (recombinant CYP-17) was 17 nM, the IC50 (recombinant CYP-11) was 11 nM and the IC50 (recombinant CYP-21) was 585 nM.

In the case of `O=S(=O)(c1cccnc1)N1CCN(c2ccc(/C=C/c3cc(Cl)cc(Cn4ccnc4)c3)cc2)CC1` [Example 21], the IC50 (recombinant CYP-17) is reported as 17 nM, the IC50 (recombinant CYP-11) is reported as 4 nM and the IC50 (recombinant CYP-21) is reported as 1380 nM.

In the case of `CC(=O)N1CCN(c2ccc(/C=C/c3cc(Cl)cc(C(O)(c4cccnc4)C(C)C)c3)cc2)CC1` (stereo not shown) [Example 29], the IC50 (recombinant CYP-17) is reported as 240 nM, the IC50 (recombinant CYP-11) is reported as 370 nM and the IC50 (recombinant CYP-21) is reported as 3300 nM.

With `CC(C)S(=O)(=O)N1CCN(c2ccc(/C=C/c3cc(F)cc(-c4ccncc4)c3)cc2)CC1` [Example 40] the IC50 (recombinant CYP-17) was 1 nM and the IC50 (recombinant CYP-21) was 190 nM.

With `O=C(C1CC1)N1CCN(c2ccc(/C=C/c3cc(Cl)cc(Cn4ccnc4)c3)cc2)CC1` [Example 22] the IC50 (recombinant CYP-17) was 48 nM, the IC50 (recombinant CYP-11) was 19 nM and the IC50 (recombinant CYP-21) was 1400 nM.

Compound `O=S(=O)(c1cccnc1)N1CCN(c2ccc(/C=C/c3cc(F)cc(-c4ccncc4)c3)cc2)CC1` [Example 33] has an IC50 (recombinant CYP-17) of 7 nM, an IC50 (recombinant CYP-11) of 220 nM and an IC50 (recombinant CYP-21) of 3300 nM.

Work on `CC(C)S(=O)(=O)N1CCN(c2ccc(CCc3cc(F)cc(-c4ccncc4)c3)cc2)CC1` [Example 42] yielded an IC50 (recombinant CYP-17) of 4 nM and an IC50 (recombinant CYP-21) of 1000 nM.
